The target in series [1] is IRF4. Conditions: ASO.
Series [2] deals with HSD17B13. Conditions: ASO, HepaRG.

Where “and” joins values, the source holds several entries; their conditions need not be identical. Equal entries are not always repeated. After the bases stand the sugars from the 5' end (letter, count) and the backbone: PS all phosphorothioate, else s phosphorothioate and o phosphodiester by linkage. Methylation of C is not given here. e = 2'-O-(2-methoxyethyl) (MOE); k = constrained ethyl (cEt); d = 2'-deoxy (DNA); m = 2'-O-methyl

In the case of CCTCAGGAAATGTCCA (sugars k4 d8 k4, PS), the target mRNA inhibition in series [1] (SK-MEL-28, 4 µM) amounted to 10%. In the case of “GGAAGTTTACACTGGA (sugars kkddddddddddkeke, PS)”, in series [1] (MM.1R, 1 µM), the target mRNA inhibition worked out at 46%. As for ACACACATTAAAGGGT (sugars k3 d10 k3, PS), in series [1] (SK-MEL-28, 4 µM), the target mRNA inhibition was determined as 43%. On the same count and under the same terms, under CTAAACTCCTAAGTAC (sugars k3 d10 k3, PS) stands 14%. On the same count and under the same terms, under AGCTTCTTTGAAGTGC (sugars k3 d10 k3, PS) stands 62%. For “GTGATGTCAGGTTTTC (sugars kkddddddddddkeke, PS)”, in series [1] (MM.1R, 1 µM), the target mRNA inhibition stood at 18%. Same read-out and setting: as for “TTCATGTAAAGTCTGC (sugars kddddddddddkekek, PS)”, the figure is 2% and -18%. For the sequence CCAAAGCATAGAGTCA (sugars k3 d10 k3, PS), the target mRNA inhibition in series [1] (SK-MEL-28, 4 µM) worked out at 58%. Same read-out and setting: as for GTCCGACGCACCGCGG (sugars k3 d10 k3, PS), the figure is 18%. Same read-out and setting: as for AATTCTCCTATGCTGA (sugars k3 d10 k3, PS), the figure is 13%. In the case of “CACATCAATGTTTTAG (sugars kkdddddddddekeke, PS)”, the target mRNA inhibition in series [1] (MM.1R, 1 µM) is 28% and 27%. For the sequence TGGAATCTTGGCAGGG (sugars k3 d10 k3, PS), the target mRNA inhibition in series [1] (SK-MEL-28, 4 µM) was found to be 40%. In the case of TCGCATAGAGCCCGTC (sugars k3 d10 k3, PS), the target mRNA inhibition in series [1] (SK-MEL-28, 4 µM) stood at 57%. For “AGCATTTTATCATCCG (sugars kkdddddddddkekek, PS)”, the target mRNA inhibition in series [1] (MM.1R, 1 µM) came to 39%. On to “ATGTGTATTACTCTTA (sugars kkdddddddddekeke, PS)”, for which, in series [1] (MM.1R, 1 µM), the target mRNA inhibition was 60% and 61%. As for “CAAGCAGTGATGTCAG (sugars k2 d9 e3 k2, PS)”, the target mRNA inhibition in series [1] (MM.1R, 1 µM) is 15% and 8%.

On to ATCTACCTCAGTTTGT (sugars k3 d10 k3, PS), for which, in series [1] (SK-MEL-28, 4 µM), the target mRNA inhibition was 42%.

Regarding GCCAAGAGGTGCGAGT (sugars k3 d10 k3, PS), the target mRNA inhibition in series [1] (SK-MEL-28, 4 µM) was 35%. As to CAGATAACGAGGTGCC (sugars k3 d10 k3, PS), in series [1] (SK-MEL-28, 4 µM), the target mRNA inhibition was 30%. Same read-out and setting: under AGTGATAGGTATACTT (sugars k3 d10 k3, PS) stands 39%; under GAGCACTGCATGAAAG (sugars k3 d10 k3, PS), 51%. Regarding “ACACTTTTAGAGAGGA (sugars kkdddddddddkekek, PS)”, in series [1] (MM.1R, 1 µM), the target mRNA inhibition stood at 27%.

As for “TGTAGTATGAGAAACG (sugars e1 k2 d9 k2 e2, PS)”, the target mRNA inhibition in series [1] (MM.1R, 1 µM) amounted to 6%. Regarding “GCATTTTATCATCCGA (sugars k2 d9 e3 k2, PS)”, the target mRNA inhibition in series [1] (MM.1R, 1 µM) came out at 38%. Turning to CCAAGTAATTTTAAGG (sugars k3 d10 k3, PS), the target mRNA inhibition in series [1] (SK-MEL-28, 4 µM) was found to be 34%. For TGTAAATGAGTCGGTC (sugars k3 d10 k3, PS), the target mRNA inhibition in series [1] (SK-MEL-28, 4 µM) was 69%. For “ATTATATACTGGTTGG (sugars kkddddddddddkeke, PS)”, in series [1] (MM.1R, 1 µM), the target mRNA inhibition is 32%. As to TGGCAGGGAGCGGCCG (sugars k3 d10 k3, PS), the target mRNA inhibition in series [1] (SK-MEL-28, 4 µM) amounted to 11%. On the same count and under the same terms, under AAAATATAACGGTGTT (sugars k3 d10 k3, PS) stands 31%; under ACAGCATAGCATTATC (sugars k3 d10 k3, PS), 64%; under AGCATAGCATTATCTA (sugars k3 d10 k3, PS), 34%.

Take “GATGTGATAGCTGAGC (sugars kkdddddddddkdkdk, PS)”: the target mRNA inhibition in series [1] (MM.1R, 1 µM) stood at 34%.

Regarding GGTGTAACTTTTACCT (sugars k3 d10 k3, PS), in series [1] (SK-MEL-28, 4 µM), the target mRNA inhibition was determined as 11%.

“TGGTTGGCTGGTCTTT (sugars kddddddddddkekek, PS)”: the target mRNA inhibition in series [1] (MM.1R, 1 µM) worked out at 9%. On to AAACACAGTCTGCTGC (sugars k3 d10 k3, PS), for which the target mRNA inhibition in series [1] (SK-MEL-28, 4 µM) was found to be 35%. The same measure, in the same setting: under CAGGGAGCGGCCGTGG (sugars k3 d10 k3, PS) stands 17%. As for GAAGGCCTGAGTTACC (sugars k3 d10 k3, PS), the target mRNA inhibition in series [1] (MM.1R, 1 µM) was 29%. On the same count and under the same terms, under “TACTGTTACCGATGCT (sugars kkdddddddddkekek, PS)” stands 9% and 27%. With CATGTAGTTGTGAACC (sugars k3 d10 k3, PS), the target mRNA inhibition in series [1] (SK-MEL-28, 4 µM) is 27%.

Take GGCAAATTAATGCTTC (sugars k3 d10 k3, PS): the target mRNA inhibition is -5% and 17% in series [1] (MM.1R, 0.0625 µM); -9% in series [1] (MM.1R, 0.074 µM); -33% in series [1] (MM.1R, 0.222 µM); -11% and 5% in series [1] (MM.1R, 0.25 µM); 7% in series [1] (MM.1R, 0.666 µM); -5% in series [1] (MM.1R, 2 µM). Besides, in series [1] (SK-MEL-28, 4 µM), the target mRNA inhibition worked out at 76%. For the sequence CTGTATCATGCATACC (sugars k3 d10 k3, PS), in series [1] (SK-MEL-28, 4 µM), the target mRNA inhibition is 61%. Turning to TAATATAGTTGTCTGG (sugars k3 d10 k3, PS), the target mRNA inhibition in series [1] (SK-MEL-28, 4 µM) was found to be 40%.

As to “GTGATAGCTGAGCTGA (sugars kkddddddddddkeke, PS)”, the target mRNA inhibition in series [1] (MM.1R, 1 µM) amounted to 35%. As for “CTCTATAGTGTTCCAG (sugars kkkdddddddddkeke, PS)”, the target mRNA inhibition in series [1] (MM.1R, 1 µM) amounted to 49%.

As to TGCCTCTGTTAGGTGA (sugars k3 d10 k3, PS), the target mRNA inhibition in series [1] (SK-MEL-28, 4 µM) was 34%. On to CCAAAGGCTCCCGACA (sugars k3 d10 k3, PS), for which the target mRNA inhibition in series [1] (SK-MEL-28, 4 µM) came to 29%.

With GGATGGAACAGTAACT (sugars k3 d10 k3, PS), the target mRNA inhibition in series [1] (SK-MEL-28, 4 µM) is 52%. For the sequence ACAAGAACTGCTGTGT (sugars k3 d10 k3, PS), the target mRNA inhibition in series [1] (SK-MEL-28, 4 µM) worked out at 7%. Still for that read-out and setting: as for AGAAAGAAGCAAGTCG (sugars k3 d10 k3, PS), the figure is 37%; as for GCCCACATAATCCAGT (sugars k3 d10 k3, PS), 22%; as for GTTCAAAGCGCACCGC (sugars k3 d10 k3, PS), 65%. With “ACGTGTGCTTGCCAAG (sugars kdddddddddkekeke, PS)”, the target mRNA inhibition in series [1] (MM.1R, 1 µM) is 40% and 35%. Consider GCCCTTAAGTCATTTT (sugars k3 d10 k3, PS), for which the target mRNA inhibition in series [2] (1 µM) stood at 25%. For the sequence CTGGAGAAGAGTTTAC (sugars k3 d10 k3, PS), the target mRNA inhibition in series [2] (1 µM) was determined as 38%. For “CTAAACATCTCTGGGA (sugars k3 d1 m1 d8 k3, PS)”, the target mRNA inhibition in series [2] (1 µM) came out at 32%. Take “CAGAUTATTATGTGAT (sugars k3 d1 m1 d8 k3, PS)”: the target mRNA inhibition in series [2] (1 µM) is 32%.

For AGACATGAGGTTTTGA (sugars k3 d10 k3, PS), the target mRNA inhibition in series [2] (1 µM) was found to be 59%. Same read-out and setting: as for GCATTAGATGGTAAGG (sugars k3 d10 k3, PS), the figure is 64%. As to “AGAGTTGCACCGTTTT (sugars k3 d9 k3 e1, PS)”, the target mRNA inhibition in series [2] (0.02 µM) is 0%; in series [2] (0.078 µM) it was 0%; in series [2] (0.313 µM), 26%; in series [2] (1 µM), 78%; in series [2] (1.25 µM), 55%; in series [2] (5 µM), 45%. With “TTAGTTAGAATAGTCT (sugars k3 d9 k3 e1, PS)”, the target mRNA inhibition in series [2] (1 µM) turned out to be 67%. On the same count and under the same terms, under CGTCAAATAGGGCTGG (sugars k3 d10 k3, PS) stands 53%; under GCATCAAGACATTCTA (sugars k3 d10 k3, PS), 72%; under AAACCTTCATGCTAGT (sugars k3 d10 k3, PS), 27%.

In the case of TGCAATGAGATTACCC (sugars k3 d10 k3, PS), the target mRNA inhibition in series [2] (1 µM) worked out at 54%. Same read-out and setting: as for “GATTAAGCAGAATTGT (sugars kkdddddddddkekek, PS)”, the figure is 31%. ATTGTCTAAACATCTC (sugars k3 d10 k3, PS): the target mRNA inhibition in series [2] (0.02 µM) was found to be 18%; in series [2] (0.078 µM), 33%; in series [2] (0.313 µM) it was 58%; in series [2] (1 µM) it was 84%; in series [2] (1.25 µM) it was 83%; in series [2] (5 µM), 94%. Regarding TAAACAATATTAAGGG (sugars k3 d10 k3, PS), the target mRNA inhibition in series [2] (1 µM) was 0%.

In the case of TGCACCGTTTTGGGCT (sugars k3 d10 k3, PS), the target mRNA inhibition in series [2] (1 µM) is 36%. On the same count and under the same terms, under AGATATTGATATACGA (sugars k3 d10 k3, PS) stands 20%. Regarding “CTGCATTAATGCCACC (sugars kkdddddddddkekek, PS)”, the target mRNA inhibition in series [2] (1 µM) is 6%. For the sequence AGTTTTCGGCACTCAG (sugars k3 d10 k3, PS), in series [2] (1 µM), the target mRNA inhibition amounted to 16%. Turning to TTAAGATGTCCAGGCA (sugars k3 d10 k3, PS), the target mRNA inhibition in series [2] (1 µM) turned out to be 35%.

As for GTCCCAGCATTATTCA (sugars k3 d10 k3, PS), the target mRNA inhibition in series [2] (1 µM) came out at 21%.

In the case of TCGAATCATTAAGCTT (sugars k3 d10 k3, PS), the target mRNA inhibition in series [2] (1 µM) was 34%.

As to AGGCAAGGATACCTGA (sugars k3 d10 k3, PS), the target mRNA inhibition in series [2] (1 µM) was 42%. Still for that read-out and setting: as for CTTACATATTGCATAC (sugars k3 d10 k3, PS), the figure is 35%. For AGCATCAAGACATTCT (sugars k3 d10 k3, PS), the target mRNA inhibition in series [2] (0.02 µM) came out at 5%; in series [2] (0.078 µM) it was 15%; in series [2] (0.313 µM), 62%; in series [2] (1 µM), 79%; in series [2] (1.25 µM), 78%; in series [2] (5 µM) it was 86%.

In the case of TTACCAGAGCATTCAT (sugars k3 d10 k3, PS), the target mRNA inhibition in series [2] (1 µM) stood at 50%. With TTGCAATGAGATTACC (sugars k3 d10 k3, PS), the target mRNA inhibition in series [2] (1 µM) came to 29%. In the case of TAAAAAATTGGTTTCG (sugars k3 d10 k3, PS), the target mRNA inhibition in series [2] (1 µM) worked out at 22%. Still for that read-out and setting: as for ACCAACGACTCCAAGT (sugars k3 d10 k3, PS), the figure is 16%; as for CACTGATACATACCAC (sugars k3 d10 k3, PS), 64%. Same read-out and setting: as for AACTACATGACCTGGG (sugars k3 d10 k3, PS), the figure is 27%. With “TAAGCTGAGAGTTCTA (sugars kkdddddddddkekek, PS)”, the target mRNA inhibition in series [2] (1 µM) is 29%.

Source of the values: the OligoGym collection.
